Data as given in BindingDB's records for doi:10.7270/Q2V1236D (Burnham Center For Chemical Genomics, 2009).

The compounds below were run against his6-Siah1 (aa 81-282) (Homo sapiens, UniProt Q8IUQ4) (assay: inhibitors of Siah-1 ligand interaction – biochemical, TR-FRET, dose response (AID 2141)).
Sequence of his6-Siah1 (aa 81-282) (Q8IUQ4 whole entry, looked up, the tested form may be a part): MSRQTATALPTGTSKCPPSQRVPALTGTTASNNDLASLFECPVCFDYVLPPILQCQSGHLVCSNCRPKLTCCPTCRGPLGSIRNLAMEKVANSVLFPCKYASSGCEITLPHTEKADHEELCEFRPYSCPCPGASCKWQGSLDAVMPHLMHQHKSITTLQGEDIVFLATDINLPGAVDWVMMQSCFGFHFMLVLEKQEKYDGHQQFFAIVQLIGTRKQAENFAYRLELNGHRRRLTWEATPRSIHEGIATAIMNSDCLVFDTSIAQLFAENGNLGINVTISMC

| Compound | IC50 [µM] |
| --- | --- |
| C[N+]1(CCNC(=O)CN=O)CCCCC1 | 130 |
| O=C(Nc1ccc(Br)cc1)c1ccc(-n2c(O)c3c(c2O)CC=CC3)cc1 [4-[1,3-bis(oxidanylidene)-3a,4,7,7a-tetrahydroisoindol-2-yl]-N-(4-bromophenyl)benzamide] | 4.27 |
| CC(C)(C)c1cc(-c2cs/c(=N\c3ccccc3)n2Cc2ccc(C(=O)O)cc2)cc(C(C)(C)C)c1O [4-[[4-(3,5-ditert-butyl-4-oxidanyl-phenyl)-2-phenylazanyl-1,3-thiazol-3-ium-3-yl]methyl]benzoic acid;bromide] | 6.69 |

The remaining compounds from weak to strong by IC50, led by results:

| IC50 [µM] | Compound |
| --- | --- |
| 50.7 | CCOC(=O)C1(C)CC(=Nc2ccc(O)cc2)C(=O)N1c1ccc(O)cc1 (stereo not given) |
| 2.93 | CC1(C)OC(C)(C)C(=CNc2ccc(O)cc2)C1=O [4-[(4-hydroxyanilino)methylene]-2,2,5,5-tetramethyldihydro-3(2H)-furanone] |
